Source: US8378112B2, “Glycyrrhetinic acid derivative and use thereof” (INI Corporation, priority 2008, dated 2013)

Columns and labels:
LPS-activated microglia = assay: Inhibitory effect on glutamate production by activated microglia (glutamate in neuronal medium cultured with microglia conditioned medium); assay type: cell-based, mouse; settings: for glutamate concentration in the neuron culture media: microglia cultured with 1 μg/ml LPS and compound at 1, 10, 100 μM for 24 hours
Procedure: (§1) Next, Compound A and Compound B were checked as to their inhibitory effect on glutamate production in activated microglia. That is, mouse primary microglia were isolated from primary mixed glial cell cultures, prepared from neonatal C57BL/6 mice brains by the “shaking off” method on the 14th culture day or later (Suzumura, A. et al J. Neuroimmunol. 15, 263-278 1987). Mouse cerebral cortex primary neuronal cells were prepared from the cerebral cortices of C57BL/6J mice at embryonic day 17, and were plated on polyethyleneimine-coated cover glasses, and were used at culture day 10-13 (Takeuchi, H. et al. J. Biol. Chem. 280, 10444-10454, 2005.)
(§2) Using the culture system of neuronal cells utilizing a microglia conditioned medium, the neuronal cell damage by activated microglia was analyzed with time by the following methods (Takeuchi, H. et al. J. Biol. Chem. 280, 10444-10454, 2005.) Namely, 1 μg/ml lipopolysaccharide (LPS) and Compound A, Compound B, and carbenoxolone (CBX) at each concentration thereof (1 μM, 10 μM and 100 μM as the final concentrations) were added to a microglia culture (about 5×10^4 cells/well, a neuronal culture medium, (made by Sumitomo Bakelite Co., Ltd)) followed by incubating under 100% humidity and 5% CO2 for 24 hours. For a control, except for not adding Compound A or Compound B, microglia were incubated in a similar manner (LPS).
Each of the activated microglia conditioned media, 500 μl, 24 hrs after the administration, was added to neuronal cells (5×10^4 cells/well) in a 24-well plate, and the neuronal cells were cultured at 37° C. under 100% humidity and 5% CO2. The non-activated microglia conditioned medium was also added to neuronal cells to serve as a control (NT). 24 hours after the start of culturing, the amounts of glutamate and neuronal cell death in the conditioned medium were analyzed.
Determination of glutamate was performed by colorimetry; and neuronal cell death was assessed by the dye-exclusion method with propidium iodide under a fluorescence microscope and the terminal deoxynucleotidyl transferase-mediated […] (TUNEL) staining.

[1] = system: Mouse cerebral cortex primary neuronal cells; assay: Cell death of neuronal cells cultured with microglia-conditioned medium (propidium iodide, TUNEL); assay type: cell-based; settings: microglia conditioned medium with LPS and compound at 1, 10, 100 μM; FIG. 6
Procedure: as §1
as §2, with “(LPS). […]” for “(LPS).”

[2] = system: human superoxide dismutase 1 (SOD1) G93A mutant transgenic mouse; assay: Survival extension effect in an ALS model mouse; assay type: in vivo; settings: 20 mg/kg intraperitoneal 3 times a week from 6-7 weeks of age; vs PBS, p<0.0002; FIG. 7
Procedure: The assessment of drug efficacy was conducted using, as an animal model of neurodegenerative diseases, the human superoxide dismutase 1 (SOD1) G93A mutant transgenic mouse, which is widely used as a model of amyotrophic lateral sclerosis (ALS). Said transgenic mice were procured from Jackson Laboratory, USA.
(§3) Starting at 6-7-weeks of age, which is considered to be an early ALS onset period, they were intraperitoneally administered with 20 mg/kg body weight of Compound B, which is a novel gap junction inhibitor, CBX, or the same volume of physiological saline (PBS group) 3 times a week. The survival analysis was performed using the Kaplan-Meier method.

[3] = system: human superoxide dismutase 1 (SOD1) (G93A) mutant transgenic mouse; assay: Survival extension effect in an acute-onset ALS model mouse; assay type: in vivo; settings: 20 mg/kg intraperitoneal 3 times a week from 7-8 weeks of age; vs PBS, p<0.0001; FIG. 8
Procedure: The assessment of drug efficacy at different Compound B concentrations was conducted using, as an animal model of neurodegenerative diseases, a human superoxide dismutase 1 (SOD1) (G93A) mutant transgenic mouse, which is widely used as an acute-onset model of amyotrophic lateral sclerosis (ALS).
as §3, with “7-8-weeks” for “6-7-weeks”, “with 5, 10, and” for “with”, “the” for “Compound B, which is a”, “inhibitor (Compound B)” for “inhibitor, CBX,”

[4] = system: APP/PS1 mutant double transgenic mouse; assay: Novel object exploration test in Alzheimer's disease model mouse; assay type: in vivo; settings: 10 and 20 mg/kg intraperitoneal 3 times a week; FIG. 10
Procedure: (§4) The assessment of drug efficacy of Compound B was conducted using, as an animal model of neurodegenerative diseases, the human amyloid precursor protein/human presenilin-1 (APP/PS1) mutant double transgenic mouse, which is widely used as an Alzheimer's disease model mouse.
(§5) Starting at 9 months of age, which is considered to be an intermediate onset period, they were intraperitoneally administered with 10 and 20 mg/kg body weight of Compound B or the same volume of physiological saline (PBS group) 3 times a week. The control group was a wild type mouse (G57BL/6J) of the same age. Behavioral analysis was performed using the following three types of behavior experiments.
(1) Novel object exploration test: After the mice were habituated for 3 days (10 minutes/day) in an acrylic experiment apparatus, they were subjected to training. The raining consisted of placing two different objects in the apparatus and they were allowed to freely explore for 10 minutes. 24 hours after the training, Retention was carried out. The Retention consisted of replacing one of the two objects which had been placed in the apparatus during the training with a novel object and allowing the mice to freely explore for 5 minutes. The times spent exploring (touching, sniffing behavior and the like) the two objects were determined respectively. […]

[5] = system: APP/PS1 mutant double transgenic mouse; assay: Fear conditioned learning test in Alzheimer's disease model mouse; assay type: in vivo; settings: FIG. 11
Procedure: as §4, §5
(2) Fear conditioned learning test: Associative learning was assessed using a fear conditioned learning test (Mouri et al., FASEB J. 21, 2135-2148, 2007; Nagai et al., FASEB J. 17, 50-52, and 2003). The mice were placed in a transparent acrylic cage with a stainless steel grid installed therein and were subjected to a 20 second tone stimulus (80 dB), and then further to an electric stimulus (0.6 mA). A set of this combination stimulus was repeated 4 times with 15 second intervals, thereby causing fear conditioning. A contextual dependency test and a tone stimulus dependency test were carried out 24 hours after the fear conditioning. For the former, mice were placed in the […] acrylic cage with a grid where the fear conditioning took place to determine their freezing behavior for two minutes under a context of giving no tone and no electric stimuli. For the latter, mice were placed in a black acrylic cage having wood chips on the floor thereof, to determine their freezing behavior for 1 minute when given a continuous tone stimulus. The results were expressed respectively in terms of a percentage (%) of the freezing behavior time relative to the total time for determination.

[6] = system: APP/PS1 mutant double transgenic mouse; assay: Morris water maze test in Alzheimer's disease model mouse; assay type: in vivo; settings: FIG. 12
Procedure: as §4, §5
(3) Morris water maze test: Spatial recognition memory was evaluated using the Morris water maze test (Mouri et al. and FASEB J. 21 2135-2148 2007; Miyamoto et al; J. Neurosci. 25, 1826-1835 2005). A 60 second trial was conducted 3 times a day to determine the swimming time (escape latency) and swimming distance (distance moved) from a different start position to a fixed platform. This was performed for seven days in row; on the eighth day, a probe test was performed with the platform removed. The Probe test involved dividing the water maze into 4 regions consisting of Target (Platform), Right, Opposite, and Left and determining the ratios of the regions in which they swam over 60 seconds. The items to be determined were determined using the SMART system (Panlab, Barcelona, Spain).

C57BL/6J mice = assay: Hippocampal glutamate concentration determination (microdialysis, LPS stimulus); assay type: in vivo, mouse; settings: 20 mg/kg intraperitoneal simultaneously with 10 μg/2 μl LPS stimulus; FIG. 13
Procedure: A microdialysis catheter was indwelled stereotaxically (in place) into the hippocampus of C57BL/6J mice (8 weeks of age, female, n=5 to 7). After settlement for 48 hours, the determination of the hippocampal glutamate with time was started using high-speed liquid chromatography (HPLC, HITEC-500 GAD, made by Eicom Corp. A stimulus was given by administering 10 μg/2 μl of lipopolysaccharide (LPS) through said catheter, along with an intraperitoneal injection of 20 mg/kg body weight CBX or Compound B simultaneously with the LPS stimulus administration, for a pharmacological efficacy assessment. The hippocampal glutamate concentration was quantified as a % value relative to the average value thereof from 120 minutes to 60 minutes before the stimulus was given to each individual.

mice = assay type: in vivo; settings: intraperitoneal injection of 200 and 1000 mg/kg body weight
[7] = 10 and 20 mg/kg intraperitoneal 3 times a week

CC1(C)[C@@H](OC(=O)c2cccnc2)CC[C@]2(C)[C@H]3C(=O)C=C4[C@@H]5C[C@@](C)(C(=O)O)CC[C@]5(C)CC[C@@]4(C)[C@]3(C)CC[C@@H]12 [Compound A]
glutamate concentration in the neuron culture media (LPS-activated microglia; FIG. 5): fell in accordance with the concentration of these compounds | neuronal cell death (%) [1]: inhibited in a concentration-dependent manner

C[n+]1cccc(C(=O)O[C@H]2CC[C@]3(C)[C@H]4C(=O)C=C5[C@@H]6C[C@@](C)(C(=O)O)CC[C@]6(C)CC[C@@]5(C)[C@]4(C)CC[C@H]3C2(C)C)c1 [Compound B]
glutamate release inhibition (LPS-activated microglia; 100 μM, LPS-activated microglia, FIG. 5): comparable to that of the non-stimulated microglia | inhibition of glutamate release in LPS-activated microglia, comparison of compounds (LPS-activated microglia; LPS-activated microglia): notably more effective than Compound A | glutamate concentration in the neuron culture media (LPS-activated microglia; FIG. 5): fell in accordance with the concentration of these compounds | neuronal cell death (%) [1]: inhibited in a concentration-dependent manner | extending survival, on average [2]: about 14 days | extending survival, on average [3]: about 2 weeks | novel object exploratory preference [4]: significantly greater than the PBS administered group | freezing behavior time, tone stimulus dependency test ([5]; 20 mg/kg administered group): significant moderation effect | freezing behavior time, contextual dependency test [5, 7]: significantly moderated the observed reduction in freezing behavior time | freezing behavior time, tone stimulus dependency test [5, 7]: dose-dependent increase in the freezing behavior time | distance swum ([6]; 10 mg/kg, training day 1): about the same as that of the PBS administered group | distance swum ([6]; 10 mg/kg, training day 5-7): fell significantly | distance swum ([6]; 20 mg/kg, training day 4-7): significant reduction | swimming time ([6]; 20 mg/kg, training day 4-7): significant reduction | swimming time in the target region (Probe test) ([6]; Compound B administered groups, day 8 probe test): significantly increased | inhibitory effect on the rise in hippocampal glutamate (C57BL/6J mice): significant inhibitory effect

CC1(C)[C@@H](OC(=O)CCC(=O)O)CC[C@]2(C)[C@H]3C(=O)C=C4[C@@H]5C[C@@](C)(C(=O)O)CC[C@]5(C)CC[C@@]4(C)[C@]3(C)CC[C@@H]12 [CBX, carbenoxolone, reference compound]
inhibitory effect on the rise in hippocampal glutamate (C57BL/6J mice): no inhibitory effect | deaths after acute dosing (mice): all mice among the CBX administered group died within 24 hours
